The results in this text go back to PMC11204923, “Marine Cytotoxin Santacruzamate A Derivatives as Potent HDAC1-3 Inhibitors and Their Synergistic Anti-Leukemia Effects with Venetoclax” (Marine Drugs, 2024).

Molecules are shown by their SMILES. Some results are limits rather than exact numbers.

One data set has as its system THP-1 cells. Kind of data set: Cell viability assay (resazurin), THP-1. The data set is classed as cell-based. Conditions: Homo sapiens, THP-1, 72 h; read-out: IC50 anti-proliferative activity THP-1. As for the experimental part: (§1) The AML cell lines MV4-11, THP-1, KASUMI-1 and HL-60 were purchased from Procell Life Science & Technology Co., Ltd. (Wuhan, China). THP-1 and KASUMI-1 were cultured in RPMI-1640 complete medium containing 10% fetal bovine serum and 1% penicillin and streptomycin. MV4-11 was cultured in IMDM complete medium containing 10% fetal bovine serum and 1% penicillin and streptomycin. HL-60 was cultured in IMDM complete medium containing 20% fetal bovine serum and 1% penicillin and streptomycin. All cell lines were cultured in an incubator with humidity set at 95%, temperature at 37 °C and 5% CO2.
(§2) MV4-11, THP-1, KASUMI-1 and HL-60 cells were plated in 96-well transparent plates (10,000 to 15,000 cells/100 μL) and after incubation overnight, cells were treated with gradient-diluted inhibitors with several concentrations. After the cells were incubated with inhibitors for 72 h, 1 mg/mL of Resazurin (Sigma-Aldrich, Saint Louis, MO, USA) was added (working concentration was 0.1 mg/mL). After incubation at 37 °C for about 3 h, the fluorescence intensity of […] was measured at 560 nm/590 nm (excitation/emission) with a Spectra Max i3 Microplate Reader, and the cell viability was determined. The IC50 curve was drawn using GraphPad Prism 9.5 software.
A general note: Resazurin is reduced to fluorescent resorufin, in cell work by metabolically active cells.

A further data set deals with T1, HDAC5 (Homo sapiens, UniProt Q9UQL6).
T1 construct: purchased BPS Bioscience
In words: In vitro HDAC inhibition fluorescence assay, HDAC5. The data set is classed as biochemical. Here is the method: (§3) All of the HDAC enzymes were purchased from BPS Bioscience. In vitro HDAC inhibition assays were conducted as previously described. In brief, 20 μL of recombinant HDAC enzyme solution (HDAC1-9, 11) was mixed with various concentrations of the tested compound (20 μL). The mixture was incubated at 37 °C for 1 h, and then, 10 μL of fluorogenic substrate (Boc-Lys (acetyl)-AMC for HDAC1, 2, 3 and 6; Boc-Lys (trifluoroacetyl)AMC for HDAC4, 5, 7, 8, 9 and 11) was added to achieve a final concentration of 50 μM. After incubation at 37 °C for 2 h, the catalysis was stopped by the addition of 10 μL of developer containing 30 mg/mL trypsin and 6 μM trichostatin A (TSA). Then, 30 min later, the fluorescence intensity was measured using a microplate reader at excitation and emission wavelengths of 360 and 460 nm, respectively. The inhibition ratios were calculated from the fluorescence intensity readings of tested wells relative to those of control wells, and the IC50 curves and values were determined by GraphPad Prism 6.0, using the “log(inhibitor) vs. normalized response-variable slope” function.

A short description of data set [1]: In vitro stability in artificial intestinal juice. Format: in vitro ADME. Conditions: 37 °C, within 24 h, degradation beginning after about 8 h. As for the experimental part:
Equal samples were collected, and 600 μL acetonitrile was added to quench enzyme reactions. The reaction mixture was swirled for 30 s and then centrifuged at 15,000 rpm at 4 °C for 15 min. The supernatant of each sample was analyzed directly by HPLC (1260 Infinity II, Agilent Technologies, Waldbronn, Germany).

The test system of another data set is MV4-11 cells. In words: Cell viability assay (resazurin), MV4-11. The data set is classed as cell-based. Conditions: Homo sapiens, MV4-11, 72 h; read-out: IC50 anti-proliferative activity MV4-11. As for the experimental part: as §1, §2
For the next data set, the target named is T2, HDAC11 (Homo sapiens, UniProt Q96DB2).
T2 construct: purchased BPS Bioscience
T2 sequence (Q96DB2 1-347): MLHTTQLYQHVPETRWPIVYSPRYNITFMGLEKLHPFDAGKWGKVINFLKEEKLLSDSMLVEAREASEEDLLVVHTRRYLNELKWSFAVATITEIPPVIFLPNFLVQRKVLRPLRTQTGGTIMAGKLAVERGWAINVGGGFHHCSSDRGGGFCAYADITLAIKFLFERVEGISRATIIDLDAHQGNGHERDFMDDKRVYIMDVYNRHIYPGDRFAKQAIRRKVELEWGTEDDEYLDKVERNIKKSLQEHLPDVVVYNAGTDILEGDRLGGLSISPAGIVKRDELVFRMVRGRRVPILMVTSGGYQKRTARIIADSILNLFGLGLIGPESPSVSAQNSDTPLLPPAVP
In words: In vitro HDAC inhibition fluorescence assay, HDAC11. Format: biochemical. Here is the method:
as §3

Another data set addresses T3, HDAC6 (Homo sapiens, UniProt Q9UBN7).
T3 construct: purchased BPS Bioscience
T3 sequence (Q9UBN7 1-1215): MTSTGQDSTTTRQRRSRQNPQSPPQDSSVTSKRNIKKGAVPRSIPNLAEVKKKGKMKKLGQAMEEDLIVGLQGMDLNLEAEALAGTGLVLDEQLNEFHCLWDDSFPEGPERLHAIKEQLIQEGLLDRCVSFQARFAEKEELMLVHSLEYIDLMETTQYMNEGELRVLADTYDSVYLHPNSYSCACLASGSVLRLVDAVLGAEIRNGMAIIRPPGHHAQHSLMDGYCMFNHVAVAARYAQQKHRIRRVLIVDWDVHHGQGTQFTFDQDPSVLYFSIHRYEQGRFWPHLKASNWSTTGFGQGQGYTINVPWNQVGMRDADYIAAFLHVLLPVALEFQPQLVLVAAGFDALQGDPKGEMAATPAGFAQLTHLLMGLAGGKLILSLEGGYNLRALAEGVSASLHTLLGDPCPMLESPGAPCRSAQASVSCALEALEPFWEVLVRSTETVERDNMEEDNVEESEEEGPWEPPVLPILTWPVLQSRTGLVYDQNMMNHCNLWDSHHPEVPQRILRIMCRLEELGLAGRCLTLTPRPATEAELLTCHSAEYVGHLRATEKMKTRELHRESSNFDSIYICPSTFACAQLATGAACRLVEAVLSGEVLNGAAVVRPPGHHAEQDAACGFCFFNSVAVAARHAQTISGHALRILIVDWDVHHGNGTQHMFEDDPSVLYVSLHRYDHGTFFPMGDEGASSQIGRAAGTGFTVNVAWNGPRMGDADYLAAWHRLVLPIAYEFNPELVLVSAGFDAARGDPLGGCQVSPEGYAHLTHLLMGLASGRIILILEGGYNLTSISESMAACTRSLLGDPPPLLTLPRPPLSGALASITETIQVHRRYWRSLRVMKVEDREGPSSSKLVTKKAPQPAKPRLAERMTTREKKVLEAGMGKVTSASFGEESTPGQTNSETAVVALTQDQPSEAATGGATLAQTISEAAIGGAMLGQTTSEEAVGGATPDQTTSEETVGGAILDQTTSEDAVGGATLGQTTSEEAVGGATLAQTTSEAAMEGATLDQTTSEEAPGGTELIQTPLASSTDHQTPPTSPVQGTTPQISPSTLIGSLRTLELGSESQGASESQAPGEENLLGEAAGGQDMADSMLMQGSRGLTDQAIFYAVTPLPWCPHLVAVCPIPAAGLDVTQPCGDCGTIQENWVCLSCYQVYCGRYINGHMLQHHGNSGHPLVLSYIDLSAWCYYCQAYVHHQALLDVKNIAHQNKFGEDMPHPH
Kind of data set: In vitro HDAC inhibition fluorescence assay, HDAC6. The data set is classed as biochemical. As for the experimental part:
as §3

T1 sequence (Q9UQL6 whole entry): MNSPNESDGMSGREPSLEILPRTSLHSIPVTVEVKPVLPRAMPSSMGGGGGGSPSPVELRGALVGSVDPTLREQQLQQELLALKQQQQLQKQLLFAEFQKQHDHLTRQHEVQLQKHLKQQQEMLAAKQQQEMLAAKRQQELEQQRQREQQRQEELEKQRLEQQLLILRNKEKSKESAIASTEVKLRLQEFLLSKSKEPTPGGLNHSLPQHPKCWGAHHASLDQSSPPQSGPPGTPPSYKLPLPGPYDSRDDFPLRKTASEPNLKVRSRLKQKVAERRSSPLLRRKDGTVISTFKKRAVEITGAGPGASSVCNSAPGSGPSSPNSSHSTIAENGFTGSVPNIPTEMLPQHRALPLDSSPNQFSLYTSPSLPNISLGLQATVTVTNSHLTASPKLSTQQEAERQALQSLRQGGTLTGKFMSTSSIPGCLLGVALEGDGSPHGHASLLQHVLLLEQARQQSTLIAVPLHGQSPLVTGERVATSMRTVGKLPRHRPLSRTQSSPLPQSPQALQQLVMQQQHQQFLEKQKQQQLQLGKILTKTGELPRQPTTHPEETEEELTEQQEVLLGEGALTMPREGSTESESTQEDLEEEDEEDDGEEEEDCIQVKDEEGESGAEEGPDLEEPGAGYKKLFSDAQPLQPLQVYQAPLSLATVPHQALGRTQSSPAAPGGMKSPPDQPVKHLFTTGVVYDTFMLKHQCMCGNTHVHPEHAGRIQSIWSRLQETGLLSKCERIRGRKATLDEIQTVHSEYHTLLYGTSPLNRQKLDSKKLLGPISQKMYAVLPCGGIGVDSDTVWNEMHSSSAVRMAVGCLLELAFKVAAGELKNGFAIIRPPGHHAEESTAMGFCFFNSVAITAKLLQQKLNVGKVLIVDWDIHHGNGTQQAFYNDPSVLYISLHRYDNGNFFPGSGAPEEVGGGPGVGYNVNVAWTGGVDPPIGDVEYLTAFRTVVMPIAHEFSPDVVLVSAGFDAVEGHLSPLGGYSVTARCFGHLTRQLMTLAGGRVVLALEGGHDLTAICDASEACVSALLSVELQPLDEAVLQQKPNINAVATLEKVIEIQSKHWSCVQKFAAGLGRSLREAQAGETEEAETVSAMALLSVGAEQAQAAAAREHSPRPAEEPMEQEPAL

Consider `CCCNNC(=O)C=Cc1ccc(CNCCc2ccccc2)cc1` [Compound 25c, 3-(4-((Phenethylamino)methyl)phenyl)-N′-propylacrylohydrazide], for which the IC50 (usually the concentration needed to halve the response being measured) in the data set on THP-1 cells was 392 ± 60.5 nM; on HDAC5, over 10000 nM; in the data set with MV4-11 cells, 340 ± 117 nM; against HDAC11 it was over 10000 nM; against HDAC6, over 10000 nM. In addition, the “degradation in artificial intestinal juice” value in data set [1] came out at 12.52%.
